The values below come from ChEMBL document CHEMBL5465560, “Selectivity Literature for EUbOPEN Chemogenomic Library” (2024).

In data set [1] the target is Calcium/calmodulin-dependent protein kinase kinase 1 (Homo sapiens) (UniProt Q8N5S9). The data set can be described thus: Selectivity interaction (KinomeScan (DiscoverX)) EUB0000595a CAMKK1. The following applies: at 10 µM.
Data set [2] addresses Mitogen-activated protein kinase kinase kinase 9 (Homo sapiens) (UniProt P80192). The data set can be described thus: Selectivity interaction (KinomeScan (DiscoverX)) EUB0000595a MAP3K9. The conditions noted are these: at 10 µM.
The target of data set [3] is Cyclin-dependent kinase 5 (Homo sapiens, UniProt Q00535). The data set can be described thus: Selectivity interaction (KinomeScan (DiscoverX)) EUB0001619a CDK5. The conditions noted are these: at 1 µM.
Data set [4] deals with T1, Phosphatidylinositol 5-phosphate 4-kinase type-2 alpha (Homo sapiens) (UniProt P48426).
T1 sequence (whole entry): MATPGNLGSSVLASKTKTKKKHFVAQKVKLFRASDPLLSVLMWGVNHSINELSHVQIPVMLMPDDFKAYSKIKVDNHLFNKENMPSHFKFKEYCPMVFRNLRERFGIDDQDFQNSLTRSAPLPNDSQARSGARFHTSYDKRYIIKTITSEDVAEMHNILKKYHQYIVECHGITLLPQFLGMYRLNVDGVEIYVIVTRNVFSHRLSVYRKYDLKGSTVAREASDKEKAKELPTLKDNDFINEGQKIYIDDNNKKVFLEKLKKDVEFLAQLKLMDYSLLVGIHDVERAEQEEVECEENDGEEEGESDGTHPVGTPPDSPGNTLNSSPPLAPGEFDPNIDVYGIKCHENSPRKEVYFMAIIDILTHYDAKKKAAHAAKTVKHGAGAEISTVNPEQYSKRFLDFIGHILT
The data set can be described thus: Selectivity interaction (ActivX KiNativ screen (ex vivo kinase selectivity in human PBMCs)) EUB0001619a PIP4K2A. Type of data set: cell-based. The following applies: PBMC, at 1 µM.

For data set [5], the target named is cAMP-dependent protein kinase catalytic subunit alpha (Homo sapiens, UniProt P17612). The data set can be described thus: Selectivity interaction (KinomeScan (DiscoverX)) EUB0001619a PRKACA. The conditions noted are these: at 1 µM.
Data set [6] deals with Myosin light chain kinase 2, skeletal/cardiac muscle (Homo sapiens) (UniProt Q9H1R3). The data set can be described thus: Selectivity interaction (KinomeScan (DiscoverX)) EUB0000666a MYLK2. The conditions noted are these: at 10 µM.
For data set [7], the target named is Serine/threonine-protein kinase Chk2 (Homo sapiens) (UniProt O96017). The data set can be described thus: Selectivity interaction (ActivX KiNativ screen (kinase selectivity in THP-1 cell lysates)) EUB0000639a CHEK2. The format is subcellular. The conditions noted are these: lysate, at 0.2 µM.
The target of data set [8] is Calcium/calmodulin-dependent protein kinase type II subunit alpha (Homo sapiens, UniProt Q9UQM7). The experiment in a line: Selectivity interaction (ActivX KiNativ screen (kinase selectivity in THP-1 cell lysates)) EUB0000639a CAMK2A. The format is subcellular. The conditions noted are these: lysate.
The target of data set [9] is Serine/threonine-protein kinase SBK1 (Homo sapiens) (UniProt Q52WX2). The experiment in a line: Selectivity interaction (KinomeScan (DiscoverX)) EUB0000045b SBK1.
In data set [10] the target is Aurora kinase B (Homo sapiens, UniProt Q96GD4). The experiment in a line: Selectivity interaction (Enzymatic assay) EUB0001199aCl AURKB.
Data set [11] concerns the target T1, Phosphatidylinositol 5-phosphate 4-kinase type-2 alpha (Homo sapiens). The data set can be described thus: Selectivity interaction (Kinase panel (literature)) EUB0001199aCl PIP4K2A. The following applies: at 1 µM.
Data set [12] deals with MAO-A (MAOA) (Homo sapiens, UniProt P21397). The data set can be described thus: Selectivity interaction (Safety Panel 44tm (Eurofins)) EUB0000162b MAOA. The conditions noted are these: at 10 µM, read-out: % of control.
Data set [13] has as its target T2, Tyrosine-protein kinase JAK3 (Homo sapiens) (UniProt P52333).
T2 sequence (whole entry): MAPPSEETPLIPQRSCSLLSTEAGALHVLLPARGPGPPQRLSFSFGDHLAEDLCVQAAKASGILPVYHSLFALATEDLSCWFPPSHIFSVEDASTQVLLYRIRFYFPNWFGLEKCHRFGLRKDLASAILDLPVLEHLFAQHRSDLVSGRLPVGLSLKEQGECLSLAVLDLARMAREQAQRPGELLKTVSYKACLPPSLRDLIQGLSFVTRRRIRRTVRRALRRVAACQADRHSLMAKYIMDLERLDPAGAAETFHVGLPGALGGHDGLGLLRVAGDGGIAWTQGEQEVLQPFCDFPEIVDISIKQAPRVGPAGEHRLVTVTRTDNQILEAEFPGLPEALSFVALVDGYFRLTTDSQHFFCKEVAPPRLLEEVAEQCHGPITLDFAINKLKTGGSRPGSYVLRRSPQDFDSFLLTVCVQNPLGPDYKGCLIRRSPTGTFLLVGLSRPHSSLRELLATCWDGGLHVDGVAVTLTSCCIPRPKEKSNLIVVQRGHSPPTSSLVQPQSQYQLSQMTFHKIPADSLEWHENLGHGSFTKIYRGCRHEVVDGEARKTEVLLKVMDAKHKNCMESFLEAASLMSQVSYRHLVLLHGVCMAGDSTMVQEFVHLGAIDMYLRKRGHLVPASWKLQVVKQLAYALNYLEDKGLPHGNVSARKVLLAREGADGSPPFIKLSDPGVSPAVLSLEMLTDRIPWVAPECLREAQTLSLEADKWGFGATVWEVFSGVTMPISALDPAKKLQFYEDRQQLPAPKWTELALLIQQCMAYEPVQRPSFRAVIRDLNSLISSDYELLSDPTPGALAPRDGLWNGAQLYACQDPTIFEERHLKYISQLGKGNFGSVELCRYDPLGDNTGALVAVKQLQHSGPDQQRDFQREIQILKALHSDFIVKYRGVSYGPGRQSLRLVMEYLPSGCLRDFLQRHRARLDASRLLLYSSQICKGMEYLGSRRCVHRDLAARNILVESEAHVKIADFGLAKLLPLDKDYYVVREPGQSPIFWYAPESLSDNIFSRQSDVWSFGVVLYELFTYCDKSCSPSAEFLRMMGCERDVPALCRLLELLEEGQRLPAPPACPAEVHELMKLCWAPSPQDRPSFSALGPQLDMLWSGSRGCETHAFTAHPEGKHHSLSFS
The data set can be described thus: Selectivity interaction (Ambit KINOMEscan and KiNATiv profiling in Jurkat cells) EUB0000090b JAK3. Type of data set: cell-based. The conditions noted are these: at 1 µM.

Data set [14] deals with RAC-gamma serine/threonine-protein kinase (Homo sapiens, UniProt Q9Y243). The experiment in a line: Selectivity interaction (KinomeScan (DiscoverX)) EUB0000618a AKT3. The following applies: at 10 µM.
Data set [15] has as its target Mitogen-activated protein kinase 14 (Homo sapiens, UniProt Q16539). The experiment in a line: Selectivity interaction (KinomeScan (DiscoverX)) EUB0000092b MAPK14. The conditions noted are these: at 10 µM.
Data set [16] addresses Tyrosine-protein kinase JAK1 (Homo sapiens, UniProt P23458). The experiment in a line: Selectivity interaction (KinomeScan (DiscoverX)) EUB0000092b JAK1. The following applies: at 10 µM.
For data set [17], the target named is Delta-type opioid receptor (Homo sapiens, UniProt P41143). The experiment in a line: Selectivity interaction (GPCR panel (PDSP screen)) EUB0001079a OPRD1. The conditions noted are these: at 10 µM.
In data set [18] the target is Interferon-induced, double-stranded RNA-activated protein kinase (Homo sapiens) (UniProt P19525). The data set can be described thus: Selectivity interaction (KinomeScan (DiscoverX)) EUB0000229b EIF2AK2. The conditions noted are these: at 10 µM.
Chain of Interferon-induced, double-stranded RNA-activated protein kinase (Homo sapiens) (P19525 whole entry): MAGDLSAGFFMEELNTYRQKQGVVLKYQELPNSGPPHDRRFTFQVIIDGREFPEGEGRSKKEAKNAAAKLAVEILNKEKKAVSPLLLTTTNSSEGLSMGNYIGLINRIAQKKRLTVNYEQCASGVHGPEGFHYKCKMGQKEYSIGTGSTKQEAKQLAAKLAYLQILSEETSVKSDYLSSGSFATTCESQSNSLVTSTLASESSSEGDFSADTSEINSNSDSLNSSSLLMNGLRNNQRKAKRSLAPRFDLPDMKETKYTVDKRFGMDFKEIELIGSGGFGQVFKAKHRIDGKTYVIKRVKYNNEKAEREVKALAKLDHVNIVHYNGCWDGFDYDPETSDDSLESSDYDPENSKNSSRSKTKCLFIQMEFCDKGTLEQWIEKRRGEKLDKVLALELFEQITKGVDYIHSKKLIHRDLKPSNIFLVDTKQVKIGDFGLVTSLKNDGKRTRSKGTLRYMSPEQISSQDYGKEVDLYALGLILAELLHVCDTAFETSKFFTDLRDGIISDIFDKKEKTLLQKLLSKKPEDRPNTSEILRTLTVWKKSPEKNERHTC

Chain of Calcium/calmodulin-dependent protein kinase type II subunit alpha (Q9UQM7 whole entry): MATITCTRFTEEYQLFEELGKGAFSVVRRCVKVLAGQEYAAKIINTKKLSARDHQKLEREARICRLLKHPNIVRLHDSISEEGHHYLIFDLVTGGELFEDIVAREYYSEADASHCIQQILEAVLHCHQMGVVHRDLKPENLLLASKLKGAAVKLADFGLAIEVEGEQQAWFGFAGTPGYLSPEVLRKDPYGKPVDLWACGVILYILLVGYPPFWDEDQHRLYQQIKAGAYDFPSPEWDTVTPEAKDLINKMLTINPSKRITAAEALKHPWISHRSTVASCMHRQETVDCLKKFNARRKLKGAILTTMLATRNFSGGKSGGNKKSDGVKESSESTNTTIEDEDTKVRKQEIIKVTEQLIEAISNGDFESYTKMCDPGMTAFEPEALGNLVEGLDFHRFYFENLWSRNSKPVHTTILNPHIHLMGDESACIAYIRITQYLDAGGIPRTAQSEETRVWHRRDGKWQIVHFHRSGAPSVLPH
Chain of Serine/threonine-protein kinase SBK1 (Homo sapiens) (Q52WX2 whole entry): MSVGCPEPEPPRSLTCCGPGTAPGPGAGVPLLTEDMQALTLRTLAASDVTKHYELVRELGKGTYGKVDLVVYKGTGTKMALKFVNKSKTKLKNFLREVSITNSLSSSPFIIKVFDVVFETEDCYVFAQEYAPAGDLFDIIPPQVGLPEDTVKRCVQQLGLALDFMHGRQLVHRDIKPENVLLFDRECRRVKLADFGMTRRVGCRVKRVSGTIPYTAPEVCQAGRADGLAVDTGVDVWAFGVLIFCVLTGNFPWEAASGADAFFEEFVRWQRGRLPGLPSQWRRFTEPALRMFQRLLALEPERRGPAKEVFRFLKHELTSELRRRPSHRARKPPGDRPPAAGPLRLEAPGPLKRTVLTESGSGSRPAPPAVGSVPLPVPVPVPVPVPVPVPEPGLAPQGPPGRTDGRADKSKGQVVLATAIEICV
Chain of Serine/threonine-protein kinase Chk2 (Homo sapiens) (O96017 whole entry): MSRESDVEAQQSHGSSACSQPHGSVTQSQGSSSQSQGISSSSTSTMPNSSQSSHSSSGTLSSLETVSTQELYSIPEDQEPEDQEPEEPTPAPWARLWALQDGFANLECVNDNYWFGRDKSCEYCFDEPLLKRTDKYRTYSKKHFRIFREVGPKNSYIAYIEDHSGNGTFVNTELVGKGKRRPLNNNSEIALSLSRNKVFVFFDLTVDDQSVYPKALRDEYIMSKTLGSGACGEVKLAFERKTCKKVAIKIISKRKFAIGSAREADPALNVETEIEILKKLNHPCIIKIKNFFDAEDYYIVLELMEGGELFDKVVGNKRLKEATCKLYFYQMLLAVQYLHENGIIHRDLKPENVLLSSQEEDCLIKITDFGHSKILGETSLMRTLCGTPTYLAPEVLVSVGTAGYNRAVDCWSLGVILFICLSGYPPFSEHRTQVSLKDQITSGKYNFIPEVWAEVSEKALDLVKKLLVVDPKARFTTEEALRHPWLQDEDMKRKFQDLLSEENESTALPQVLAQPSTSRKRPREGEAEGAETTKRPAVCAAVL
Chain of Aurora kinase B (Q96GD4 whole entry): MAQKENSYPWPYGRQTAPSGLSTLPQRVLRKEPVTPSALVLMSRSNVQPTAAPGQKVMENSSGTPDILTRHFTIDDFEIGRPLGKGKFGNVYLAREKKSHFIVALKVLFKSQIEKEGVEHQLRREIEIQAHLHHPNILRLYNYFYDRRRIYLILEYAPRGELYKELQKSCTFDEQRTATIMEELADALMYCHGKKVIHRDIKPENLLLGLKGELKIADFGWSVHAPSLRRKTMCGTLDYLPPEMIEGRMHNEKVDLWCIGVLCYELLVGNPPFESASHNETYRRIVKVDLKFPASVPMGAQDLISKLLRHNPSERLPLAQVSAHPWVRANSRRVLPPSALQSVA
Chain of Delta-type opioid receptor (P41143 whole entry): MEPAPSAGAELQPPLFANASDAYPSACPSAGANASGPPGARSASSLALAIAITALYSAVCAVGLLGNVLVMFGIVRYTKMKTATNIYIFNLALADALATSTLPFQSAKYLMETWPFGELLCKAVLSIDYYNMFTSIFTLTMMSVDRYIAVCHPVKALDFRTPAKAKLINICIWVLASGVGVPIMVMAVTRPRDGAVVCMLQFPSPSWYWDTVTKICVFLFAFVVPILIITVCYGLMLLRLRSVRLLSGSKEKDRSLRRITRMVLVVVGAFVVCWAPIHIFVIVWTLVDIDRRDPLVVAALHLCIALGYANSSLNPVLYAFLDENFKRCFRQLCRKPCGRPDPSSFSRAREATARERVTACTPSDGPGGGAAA
Chain of Myosin light chain kinase 2, skeletal/cardiac muscle (Homo sapiens) (Q9H1R3 whole entry): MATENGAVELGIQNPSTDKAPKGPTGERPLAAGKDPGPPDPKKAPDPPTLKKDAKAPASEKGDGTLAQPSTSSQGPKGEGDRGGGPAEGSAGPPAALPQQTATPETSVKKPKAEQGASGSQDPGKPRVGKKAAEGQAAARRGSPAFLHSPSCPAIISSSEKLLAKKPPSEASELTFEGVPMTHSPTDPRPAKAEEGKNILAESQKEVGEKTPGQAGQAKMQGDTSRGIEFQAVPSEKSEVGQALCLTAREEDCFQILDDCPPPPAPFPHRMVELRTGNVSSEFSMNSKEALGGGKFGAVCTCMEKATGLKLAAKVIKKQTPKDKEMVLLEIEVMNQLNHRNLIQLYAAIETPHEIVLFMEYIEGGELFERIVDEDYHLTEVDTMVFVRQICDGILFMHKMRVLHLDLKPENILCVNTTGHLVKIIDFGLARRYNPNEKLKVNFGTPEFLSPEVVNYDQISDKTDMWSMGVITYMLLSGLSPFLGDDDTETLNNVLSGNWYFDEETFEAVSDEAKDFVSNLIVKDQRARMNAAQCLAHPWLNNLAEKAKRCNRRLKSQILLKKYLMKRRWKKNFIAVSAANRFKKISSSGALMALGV
Chain of RAC-gamma serine/threonine-protein kinase (Q9Y243 whole entry): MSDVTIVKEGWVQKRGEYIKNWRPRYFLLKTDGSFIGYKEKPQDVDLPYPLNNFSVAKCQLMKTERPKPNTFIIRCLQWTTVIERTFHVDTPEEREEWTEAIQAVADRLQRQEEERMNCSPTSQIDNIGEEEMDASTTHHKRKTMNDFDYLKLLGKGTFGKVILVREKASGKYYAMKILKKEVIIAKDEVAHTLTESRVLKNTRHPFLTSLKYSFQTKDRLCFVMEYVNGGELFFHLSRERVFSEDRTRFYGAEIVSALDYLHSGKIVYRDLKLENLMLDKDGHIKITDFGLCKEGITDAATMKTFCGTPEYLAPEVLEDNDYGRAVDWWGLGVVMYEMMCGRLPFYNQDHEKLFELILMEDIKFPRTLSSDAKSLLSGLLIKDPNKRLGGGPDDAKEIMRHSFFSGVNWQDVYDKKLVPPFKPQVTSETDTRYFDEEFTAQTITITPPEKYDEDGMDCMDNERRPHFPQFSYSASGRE
Chain of Calcium/calmodulin-dependent protein kinase kinase 1 (Homo sapiens) (Q8N5S9 whole entry, looked up): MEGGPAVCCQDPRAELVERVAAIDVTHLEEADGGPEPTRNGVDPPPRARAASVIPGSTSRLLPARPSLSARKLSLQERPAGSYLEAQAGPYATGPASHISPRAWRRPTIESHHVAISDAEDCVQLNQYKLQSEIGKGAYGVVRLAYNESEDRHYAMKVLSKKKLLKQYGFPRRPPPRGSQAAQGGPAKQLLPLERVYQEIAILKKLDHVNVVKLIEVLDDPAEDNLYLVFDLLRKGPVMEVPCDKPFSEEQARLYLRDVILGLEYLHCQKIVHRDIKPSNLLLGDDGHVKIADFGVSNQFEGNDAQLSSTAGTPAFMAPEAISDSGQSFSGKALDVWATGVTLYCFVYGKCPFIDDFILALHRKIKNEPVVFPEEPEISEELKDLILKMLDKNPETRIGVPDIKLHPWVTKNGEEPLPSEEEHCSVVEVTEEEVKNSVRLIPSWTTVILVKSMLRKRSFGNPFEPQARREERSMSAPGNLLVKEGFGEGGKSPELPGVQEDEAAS
Chain of Mitogen-activated protein kinase 14 (Q16539 whole entry): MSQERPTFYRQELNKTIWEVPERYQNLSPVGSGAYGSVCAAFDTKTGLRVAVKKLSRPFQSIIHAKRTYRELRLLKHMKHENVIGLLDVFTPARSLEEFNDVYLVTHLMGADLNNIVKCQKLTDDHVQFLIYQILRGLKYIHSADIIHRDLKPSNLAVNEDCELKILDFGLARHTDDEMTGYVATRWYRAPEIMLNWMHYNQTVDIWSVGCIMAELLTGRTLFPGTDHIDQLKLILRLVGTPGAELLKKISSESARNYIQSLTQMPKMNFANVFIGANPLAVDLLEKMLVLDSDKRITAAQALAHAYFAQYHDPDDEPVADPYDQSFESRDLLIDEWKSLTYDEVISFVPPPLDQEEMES
Chain of Cyclin-dependent kinase 5 (Q00535 whole entry, looked up): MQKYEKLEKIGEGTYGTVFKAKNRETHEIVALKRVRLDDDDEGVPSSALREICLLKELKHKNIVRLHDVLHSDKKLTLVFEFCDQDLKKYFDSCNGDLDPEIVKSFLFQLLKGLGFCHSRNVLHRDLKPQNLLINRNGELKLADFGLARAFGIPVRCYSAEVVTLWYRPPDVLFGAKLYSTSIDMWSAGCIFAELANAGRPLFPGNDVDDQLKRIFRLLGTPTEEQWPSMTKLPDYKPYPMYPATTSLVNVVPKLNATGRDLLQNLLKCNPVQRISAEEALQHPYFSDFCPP

Take `COCC(=O)NC/C=C/c1ccc2ncnc(Nc3ccc(Oc4ccc(C)nc4)c(C)c3)c2c1` [CP-724714]: the values for the % of control in data set [1] and in [2] were 96% and 74%, respectively.

For the compound `N#Cc1cccc(-c2c[nH]c3ncnc(N4CCOCC4)c23)c1`, the % of control worked out at 92% in [3] and 94% in data set [5]. In addition, the % of inhibition in [4] worked out at 16%. The compound `O=C(NOC[C@H](O)CO)c1ccc(F)c(F)c1Nc1ccc(I)cc1F` gave a % of control in [6] of 100%. In the case of `CC[C@@H]1[C@H](F)C(=O)N[C@@H]1COc1nccc2cc(C(N)=O)c(OC)cc12` [ZIMLOVISERTIB], the % of inhibition was -0.3% in [7]; 3.3% in [8] (at 0.01 µM); 16.7% in [8] (at 0.04 µM); 6.9% in data set [8] (at 0.2 µM); 25.1% in [8] (at 1 µM); 56.2% in [8] (at 5 µM). Take `C=CC(=O)Nc1cc(-n2c(=O)ccc3cnc4ccc(-c5ccc(NS(C)(=O)=O)cc5)cc4c32)ccc1C`: the % of control worked out at 4.6% in data set [9] (at 1 µM) and 100% in data set [9] (at 10 µM). The IC50 is the concentration that gives 50% inhibition. Higher therefore signals a need for much substance. Compound `CN1Cc2nccc(-c3cn(C)nc3-c3ccc(F)cc3)c2C1=O` yielded an IC50 in data set [10] of 10.2 µM. In data set [11], the % of inhibition was -6%. Regarding `CN(C)C(=O)Cn1cc(-c2ccc(-c3cncc4ccccc34)cc2)cn1`, the activity in [12] worked out at 30%. Compound `CN(C)C/C=C/C(=O)Nc1ccc(C(=O)N2CCCC(Nc3ncc(Cl)c(-c4c[nH]c5ccccc45)n3)C2)cc1` (stereo not drawn) gave a % of control in [13] of 100%. `O[C@H]1CC[C@H](Nc2ncc3nc(Nc4c(F)cc(F)cc4F)n([C@H]4CCOC4)c3n2)CC1`: in data set [14], the % of control stood at 100%. In the case of `CCC(=O)N1CCN(c2ccc(-n3c(=O)ccc4cnc5ccc(-c6cnc7ccccc7c6)cc5c43)cc2C(F)(F)F)CC1`, the % of control in data set [15] was found to be 90%; in data set [16], 82%. As to `Nc1cnc(N2CCc3cc(S(=O)(=O)Nc4c(F)cc(Cl)cc4F)cc(N4CCCC4=O)c32)nc1` [TP-020n], the % of inhibition in data set [17] is -1.24%. As to `COc1cc(N(C)c2ccnc3ccc(C(F)(F)F)cc23)cc(OC)c1OC`, the % binding in data set [18] is 58%.
